Test results as given in PubChem BioAssay (NCI).
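Each compound was tested at five concentrations against cells in 96-well plates for 48 hours. GI50 = concentration required for 50% inhibition of growth. The concentration for full growth arrest is given as TGI.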

Legend:
Assay in all cases: DTP human tumour cell line panel, 48 h
HCT-15 colon = test system: HCT-15 colon
SR leukemia = test system: SR leukemia
KM12 colon = test system: KM12 colon
DU-145 prostate = test system: DU-145 prostate
LOX IMVI melanoma = test system: LOX IMVI melanoma
UO-31 renal = test system: UO-31 renal
NCI-H226 lung = test system: NCI-H226 lung
SNB-19 CNS = test system: SNB-19 CNS
HOP-62 NSCLC = test system: HOP-62 NSCLC
HT29 colon = test system: HT29 colon
HL-60(TB) leukemia = test system: HL-60(TB) leukemia
SK-MEL-5 melanoma = test system: SK-MEL-5 melanoma
CCRF-CEM leukemia = test system: CCRF-CEM leukemia
T-47D breast = test system: T-47D breast
SNB-75 CNS = test system: SNB-75 CNS
MALME-3M melanoma = test system: MALME-3M melanoma
ACHN renal = test system: ACHN renal
MDA-MB-435 = test system: MDA-MB-435
K-562 leukemia = test system: K-562 leukemia
786-0 renal = test system: 786-0 renal
CAKI-1 renal = test system: CAKI-1 renal
SW-620 colon = test system: SW-620 colon
NCI-H522 lung = test system: NCI-H522 lung
HCT-116 colon = test system: HCT-116 colon
RXF 393 renal = test system: RXF 393 renal
UACC-257 melanoma = test system: UACC-257 melanoma
NCI-H460 lung = test system: NCI-H460 lung
UACC-62 melanoma = test system: UACC-62 melanoma
PC-3 prostate = test system: PC-3 prostate
HOP-92 NSCLC = test system: HOP-92 NSCLC
TK-10 renal = test system: TK-10 renal
SF-268 CNS = test system: SF-268 CNS
OVCAR-3 ovarian = test system: OVCAR-3 ovarian
SF-539 CNS = test system: SF-539 CNS
SK-OV-3 ovarian = test system: SK-OV-3 ovarian
NCI-H23 lung = test system: NCI-H23 lung
MOLT-4 leukemia = test system: MOLT-4 leukemia
RPMI-8226 leukemia = test system: RPMI-8226 leukemia
OVCAR-8 ovarian = test system: OVCAR-8 ovarian
MDA-MB-231 breast = test system: MDA-MB-231 breast
HS 578T breast = test system: HS 578T breast
OVCAR-5 ovarian = test system: OVCAR-5 ovarian
COLO 205 colon = test system: COLO 205 colon
A498 renal = test system: A498 renal
SN12C renal = test system: SN12C renal
NCI/ADR-RES ovarian = test system: NCI/ADR-RES ovarian
M14 melanoma = test system: M14 melanoma
IGROV1 ovarian = test system: IGROV1 ovarian
OVCAR-4 ovarian = test system: OVCAR-4 ovarian
EKVX NSCLC = test system: EKVX NSCLC
BT-549 breast = test system: BT-549 breast
HCC-2998 colon = test system: HCC-2998 colon
SK-MEL-28 melanoma = test system: SK-MEL-28 melanoma
U251 CNS = test system: U251 CNS
MCF7 breast = test system: MCF7 breast
SF-295 CNS = test system: SF-295 CNS
A549 NSCLC = test system: A549 NSCLC
SK-MEL-2 melanoma = test system: SK-MEL-2 melanoma

Which results are given for `CCC(CC)n1c(=O)c(SC2=NC3C(NN2)N(CC)C(=O)N3CC)c(C(=O)O)c2ccccc21` (configuration not stated)?
GI50 (HCT-15 colon): 969 nM; TGI (HCT-15 colon): > 100000 nM; GI50 (SR leukemia): 805 nM; TGI (SR leukemia): > 49000 nM; GI50 (KM12 colon): 1200 nM; TGI (KM12 colon): > 100000 nM; GI50 (DU-145 prostate): 1300 nM; TGI (DU-145 prostate): > 100000 nM; GI50 (LOX IMVI melanoma): 1260 nM; TGI (LOX IMVI melanoma): > 100000 nM; GI50 (UO-31 renal): 1540 nM; TGI (UO-31 renal): > 100000 nM; GI50 (NCI-H226 lung): 1110 nM; TGI (NCI-H226 lung): 5780 nM; GI50 (SNB-19 CNS): 1660 nM; TGI (SNB-19 CNS): > 100000 nM; GI50 (HOP-62 NSCLC): 1460 nM; TGI (HOP-62 NSCLC): > 57000 nM; GI50 (HT29 colon): 909 nM; GI50 (HL-60(TB) leukemia): 767 nM; TGI (HL-60(TB) leukemia): 2300 nM; GI50 (SK-MEL-5 melanoma): 1380 nM; TGI (SK-MEL-5 melanoma): 7640 nM; GI50 (CCRF-CEM leukemia): 1130 nM; TGI (CCRF-CEM leukemia): > 100000 nM; GI50 (T-47D breast): 6140 nM; TGI (T-47D breast): > 100000 nM; GI50 (SNB-75 CNS): 1210 nM; TGI (SNB-75 CNS): > 33400 nM; GI50 (MALME-3M melanoma): 2660 nM; TGI (MALME-3M melanoma): > 100000 nM; GI50 (ACHN renal): 1580 nM; TGI (ACHN renal): > 100000 nM; GI50 (MDA-MB-435): 2030 nM; TGI (MDA-MB-435): 5010 nM; GI50 (K-562 leukemia): 1000 nM; TGI (K-562 leukemia): > 100000 nM; GI50 (786-0 renal): 1530 nM; TGI (786-0 renal): > 100000 nM; GI50 (CAKI-1 renal): 1220 nM; TGI (CAKI-1 renal): 32300 nM; GI50 (SW-620 colon): 1480 nM; TGI (SW-620 colon): > 100000 nM; GI50 (NCI-H522 lung): 578 nM; TGI (NCI-H522 lung): 1460 nM; GI50 (HCT-116 colon): 1010 nM; TGI (HCT-116 colon): > 33700 nM; GI50 (RXF 393 renal): 805 nM; TGI (RXF 393 renal): 3280 nM; GI50 (UACC-257 melanoma): 5530 nM; TGI (UACC-257 melanoma): > 100000 nM; GI50 (NCI-H460 lung): 1110 nM; TGI (NCI-H460 lung): > 54100 nM; GI50 (UACC-62 melanoma): 1200 nM; TGI (UACC-62 melanoma): 36500 nM; GI50 (PC-3 prostate): 1250 nM; TGI (PC-3 prostate): > 100000 nM; GI50 (HOP-92 NSCLC): 18300 nM; TGI (HOP-92 NSCLC): > 100000 nM; GI50 (TK-10 renal): 14500 nM; TGI (TK-10 renal): > 89800 nM; GI50 (SF-268 CNS): 2030 nM; TGI (SF-268 CNS): > 100000 nM; GI50 (OVCAR-3 ovarian): 966 nM; TGI (OVCAR-3 ovarian): 3490 nM; GI50 (SF-539 CNS): 811 nM; TGI (SF-539 CNS): 2380 nM; GI50 (SK-OV-3 ovarian): 1450 nM; TGI (SK-OV-3 ovarian): > 94100 nM; GI50 (NCI-H23 lung): 3590 nM; TGI (NCI-H23 lung): > 100000 nM; GI50 (MOLT-4 leukemia): 1150 nM; TGI (MOLT-4 leukemia): > 48200 nM; GI50 (RPMI-8226 leukemia): 3760 nM; TGI (RPMI-8226 leukemia): > 100000 nM; GI50 (OVCAR-8 ovarian): 1050 nM; GI50 (MDA-MB-231 breast): 1270 nM; TGI (MDA-MB-231 breast): > 71900 nM; GI50 (HS 578T breast): 1220 nM; TGI (HS 578T breast): 99200 nM; GI50 (OVCAR-5 ovarian): 1280 nM; TGI (OVCAR-5 ovarian): > 100000 nM; GI50 (COLO 205 colon): 771 nM; TGI (COLO 205 colon): 1830 nM; GI50 (A498 renal): 33700 nM; TGI (A498 renal): > 87200 nM; GI50 (SN12C renal): 1310 nM; TGI (SN12C renal): > 100000 nM; GI50 (NCI/ADR-RES ovarian): 974 nM; GI50 (M14 melanoma): 1050 nM; TGI (M14 melanoma): > 55200 nM; GI50 (IGROV1 ovarian): 1500 nM; TGI (IGROV1 ovarian): > 100000 nM; GI50 (OVCAR-4 ovarian): 6560 nM; TGI (OVCAR-4 ovarian): > 100000 nM; GI50 (EKVX NSCLC): 6670 nM; TGI (EKVX NSCLC): > 100000 nM; GI50 (BT-549 breast): 1470 nM; TGI (BT-549 breast): 6720 nM; GI50 (HCC-2998 colon): 1080 nM; GI50 (SK-MEL-28 melanoma): 2200 nM; TGI (SK-MEL-28 melanoma): > 100000 nM; GI50 (U251 CNS): 1130 nM; TGI (U251 CNS): > 100000 nM; GI50 (MCF7 breast): 1030 nM; TGI (MCF7 breast): > 100000 nM; GI50 (SF-295 CNS): 1020 nM; TGI (SF-295 CNS): > 46800 nM; GI50 (A549 NSCLC): 1510 nM; TGI (A549 NSCLC): > 100000 nM; GI50 (SK-MEL-2 melanoma): 1080 nM; TGI (SK-MEL-2 melanoma): > 55000 nM
